Read-outs that look alike come from different tables or passages of the source.
Assays:
[1] = test system: the four isomaltases (Ima1p, Ima2p, Ima3p, Ima5p); experiment: Effects of chemical reagents and metal ions on purified isomaltases; format: biochemical, Saccharomyces cerevisiae
Ima3p [2] = molecular target: T1, Ima3p (Saccharomyces cerevisiae, UniProt P0CW40); conditions: addition of EDTA, 5 mM; 5 mM pNPG as substrate
Ima1p [3] = molecular target: T2, Ima1p (Saccharomyces cerevisiae, UniProt P53051); experiment: Effects of chemical reagents and metal ions on purified isomaltases; format: biochemical; conditions: 5 mM pNPG as substrate; for effect on activity: Mg2+ 5 mM, Mn2+ 1 mM
Ima2p [4] = molecular target: T3, Ima2p (Saccharomyces cerevisiae, UniProt Q08295); experiment: Substrate specificity of purified isomaltase; format: biochemical; conditions: 100 mM substrate (pNPG 5 mM), pH 7, 30 °C; for Specific activities: citrate–potassium phosphate buffer
Ima5p [5] = molecular target: T4, Ima5p (Saccharomyces cerevisiae, UniProt P40884); experiment: Substrate specificity of purified isomaltase; format: biochemical; conditions: 100 mM substrate (pNPG 5 mM), pH 7, 30 °C; for Specific activities: citrate–potassium phosphate buffer
T4 sequence (P40884 1-581): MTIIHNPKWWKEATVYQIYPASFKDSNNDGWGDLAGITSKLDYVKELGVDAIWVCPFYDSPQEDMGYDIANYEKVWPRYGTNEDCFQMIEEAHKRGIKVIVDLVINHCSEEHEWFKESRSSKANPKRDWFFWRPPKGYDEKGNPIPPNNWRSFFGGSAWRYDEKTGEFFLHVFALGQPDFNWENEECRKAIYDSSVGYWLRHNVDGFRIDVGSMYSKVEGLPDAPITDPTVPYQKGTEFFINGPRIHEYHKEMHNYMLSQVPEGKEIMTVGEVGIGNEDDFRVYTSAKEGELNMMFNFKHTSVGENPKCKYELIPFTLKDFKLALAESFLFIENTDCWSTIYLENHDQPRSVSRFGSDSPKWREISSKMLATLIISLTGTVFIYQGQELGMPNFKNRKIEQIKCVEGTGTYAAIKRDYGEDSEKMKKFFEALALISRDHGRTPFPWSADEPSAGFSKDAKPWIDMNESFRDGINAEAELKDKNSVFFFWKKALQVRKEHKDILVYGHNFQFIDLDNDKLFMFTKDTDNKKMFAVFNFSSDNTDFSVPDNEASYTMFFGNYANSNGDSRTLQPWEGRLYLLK

Ima1p [6] = molecular target: T2, Ima1p; experiment: Inhibition by maltose of isomaltose hydrolysis; format: biochemical
Ima1p [7] = molecular target: T2, Ima1p; experiment: Substrate specificity of purified isomaltase; format: biochemical; conditions: 100 mM substrate (pNPG 5 mM), pH 7, 30 °C; for Specific activities: citrate–potassium phosphate buffer
Ima1p [8] = molecular target: T2, Ima1p; conditions: isomaltose 50–500 mM; cited from earlier work
Ima5p [9] = molecular target: T4, Ima5p; experiment: Inhibition by maltose of isomaltose hydrolysis; format: biochemical; conditions: isomaltose up to 50 mM
Ima3p [10] = molecular target: T1, Ima3p; experiment: Substrate specificity of purified isomaltase; format: biochemical; conditions: 100 mM substrate (pNPG 5 mM), pH 7, 30 °C; for Specific activities: citrate–potassium phosphate buffer
[11] = test system: the four isomaltases (Ima proteins); experiment: Effect of compounds on melting temperature of isomaltases; parameters: species or system Saccharomyces cerevisiae
[12] = test system: the four isomaltases (Ima1p, Ima2p, Ima3p, Ima5p); experiment: Activity of the isomaltases on substrates; format: biochemical, Saccharomyces cerevisiae; conditions: for activity on the substrate: all Ima proteins
Ima1p [13] = molecular target: T2, Ima1p; experiment: Inhibition by acarbose of isomaltose hydrolysis; format: biochemical; conditions: read-out: residual activity
Ima3pR279Q = Ima3pR279Q (Saccharomyces cerevisiae, UniProt P0CW40, R279Q); experiment: Substrate specificity of purified isomaltase variant; format: biochemical; conditions: 100 mM substrate (pNPG 5 mM), citrate–potassium phosphate buffer, pH 7, 30 °C
Ima5p [14] = molecular target: T4, Ima5p; experiment: Kinetic parameters for selected substrates; format: biochemical
Ima2p [15] = molecular target: T3, Ima2p; experiment: Kinetic parameters for selected substrates; format: biochemical
Ima1p [16] = molecular target: T2, Ima1p; experiment: Kinetic parameters for selected substrates; format: biochemical
Ima3p [17] = molecular target: T1, Ima3p; experiment: Kinetic parameters for selected substrates; format: biochemical
Ima3pL240P = Ima3pL240P (Saccharomyces cerevisiae, UniProt P0CW40, L240P); experiment: Substrate specificity of purified isomaltase variant; format: biochemical; conditions: 100 mM substrate (pNPG 5 mM), citrate–potassium phosphate buffer, pH 7, 30 °C
[18] = substrate concentration increased to 10 mM

T3 sequence (Q08295 whole entry): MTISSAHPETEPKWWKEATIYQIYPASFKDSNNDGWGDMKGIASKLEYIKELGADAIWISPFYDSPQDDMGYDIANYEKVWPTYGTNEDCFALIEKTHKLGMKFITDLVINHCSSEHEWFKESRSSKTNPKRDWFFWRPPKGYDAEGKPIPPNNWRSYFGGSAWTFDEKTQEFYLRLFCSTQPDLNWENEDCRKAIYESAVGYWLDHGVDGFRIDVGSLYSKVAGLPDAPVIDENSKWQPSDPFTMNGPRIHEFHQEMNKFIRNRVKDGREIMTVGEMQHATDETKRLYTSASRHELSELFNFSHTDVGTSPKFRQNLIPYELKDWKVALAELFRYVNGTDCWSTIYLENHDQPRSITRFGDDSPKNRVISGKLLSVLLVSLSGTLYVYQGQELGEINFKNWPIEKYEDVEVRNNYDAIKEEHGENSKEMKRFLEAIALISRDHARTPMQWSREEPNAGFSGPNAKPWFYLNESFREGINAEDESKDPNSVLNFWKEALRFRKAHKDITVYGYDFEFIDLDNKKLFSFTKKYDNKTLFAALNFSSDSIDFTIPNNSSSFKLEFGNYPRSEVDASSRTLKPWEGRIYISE
T1 sequence (P0CW40 whole entry): as the sequence (Q08295 whole entry) above, with A54T, P240L, Q279R counted along it
T2 sequence (P53051 whole entry): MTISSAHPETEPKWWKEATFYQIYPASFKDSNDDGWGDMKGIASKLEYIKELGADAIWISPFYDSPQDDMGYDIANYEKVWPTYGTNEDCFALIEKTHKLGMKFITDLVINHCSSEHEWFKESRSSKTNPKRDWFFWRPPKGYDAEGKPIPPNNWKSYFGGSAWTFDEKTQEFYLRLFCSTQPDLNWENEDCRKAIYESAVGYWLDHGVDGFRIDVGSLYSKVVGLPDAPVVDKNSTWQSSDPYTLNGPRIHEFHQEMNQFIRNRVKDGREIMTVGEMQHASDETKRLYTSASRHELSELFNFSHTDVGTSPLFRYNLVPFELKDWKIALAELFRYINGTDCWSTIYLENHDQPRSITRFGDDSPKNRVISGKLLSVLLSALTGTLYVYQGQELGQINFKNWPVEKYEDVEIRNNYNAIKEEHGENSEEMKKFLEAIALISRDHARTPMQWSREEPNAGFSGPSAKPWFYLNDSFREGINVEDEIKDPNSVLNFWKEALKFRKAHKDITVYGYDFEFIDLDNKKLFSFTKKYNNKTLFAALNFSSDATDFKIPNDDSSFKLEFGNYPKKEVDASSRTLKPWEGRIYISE
Sequence of Ima3pR279Q (P0CW40 whole entry R279Q): as the sequence (Q08295 whole entry) above, with A54T, P240L counted along it
Sequence of Ima3pL240P (P0CW40 whole entry L240P): as the sequence (Q08295 whole entry) above, with A54T, Q279R counted along it

Compound: [Ca+2] [Ca^2+]
- effect on activity ([1]; addition of Ca2+, 5 mM): None of the isoforms was affected

Compound: O=C(O)CN(CCN(CC(=O)O)CC(=O)O)CC(=O)O [EDTA]
- effect on activity (Ima3p [2]): slightly inhibited

Compound: [Fe+3] [Fe^3+]
- residual activity (Ima1p [3]; 5 mM Fe3+, pH 7, 30 °C): 8%

Compound: OC[C@H]1O[C@H](O[C@H]2[C@H](O)[C@@H](O)[C@H](O)O[C@@H]2CO)[C@H](O)[C@@H](O)[C@@H]1O [Maltose, O-α-D-Glucosyl-(1→4)-α-D-glucose]
- Specific activities (Ima2p [4]): 0 µmol/min/mg
- Specific activities (Ima5p [5]): 0 µmol/min/mg
- type of inhibition (Ima1p [6]; at high substrate concentration): uncompetitive inhibition
- type of inhibition (Ima1p [6]; at low substrate concentration): competitive inhibition
- Specific activities (Ima1p [7]): 0 µmol/min/mg
- type of inhibition (Ima1p [8]): competitive inhibitor
- type of inhibition (Ima5p [9]): mixed inhibition
- Specific activities (Ima3p [10]): 0 µmol/min/mg
- effect on melting temperature ([11]; presence of maltose, results not shown): did not affect the melting temperature
- activity on the substrate [12]: totally inactive

Compound: [Mg+2] [Mg^2+]
- effect on activity (Ima1p [3]): slightly enhanced

Compound: [Mn+2] [Mn^2+]
- effect on activity (Ima1p [3]): slightly enhanced

Compound: NC(CO)(CO)CO [Tris]
- inhibition of the activity ([1]; 5 mM Tris): 90%
- increase of Tm of the 4 proteins ([11]; Tris 5 mM, assay at pH 7.0, results not shown): about 5 °C

Compound: C[C@H]1O[C@H](O[C@H]2[C@H](O)[C@@H](O)[C@@H](O[C@H]3[C@H](O)[C@@H](O)C(O)O[C@@H]3CO)O[C@@H]2CO)[C@H](O)[C@@H](O)[C@@H]1N[C@H]1C=C(CO)[C@@H](O)[C@H](O)[C@H]1O (stereo partly drawn) [acarbose]
- remaining activity at 5000 µM (Ima1p [13]): ~80%
- remaining activity at 20000 µM (Ima1p [13]): ~40%

Compound: OC[C@H]1O[C@H](OC[C@H]2O[C@H](O)[C@H](O)[C@@H](O)[C@@H]2O)[C@H](O)[C@@H](O)[C@H]1O [melibiose, O-α-D-galactosyl-(1→6)-α-D-glucose]
- activity on the substrate [12]: inactive

Compound: O=[N+]([O-])c1ccc(O[C@H]2O[C@H](CO)[C@@H](O)[C@H](O)[C@H]2O)cc1 [α-pNPG, 4-Nitrophenyl α-D-glucopyranoside]
- Specific activities (Ima2p [4]): 7.7 µmol/min/mg
- relative activity, velocity on isomaltose set to 100 (Ima2p [4]): 14%
- Specific activities (Ima3pR279Q): 8.5 µmol/min/mg
- Ki (Ima5p [14]): 33 ± 21 mM
- drop of activity at high substrate concentration (Ima5p [14]; [18]): 10%
- Specific activities (Ima5p [5]): 10 µmol/min/mg
- relative activity, velocity on isomaltose set to 100 (Ima5p [5]): 15%
- Specific activities (Ima1p [7]): 5.8 µmol/min/mg
- relative activity, velocity on isomaltose set to 100 (Ima1p [7]): 10%
- Ki (Ima2p [15]): 12 ± 3 mM
- Ki (Ima1p [16]): 25 ± 15 mM
- drop of activity at high substrate concentration (Ima1p [16]; [18]): 10%
- Specific activities (Ima3p [10]): 3.9 µmol/min/mg
- relative activity, velocity on isomaltose set to 100 (Ima3p [10]): 54%
- Ki (Ima3p [17]): 9.8 ± 3.2 mM
- drop of activity at high substrate concentration (Ima3p [17]; [18]): 33%
- Specific activities (Ima3pL240P): 5.5 µmol/min/mg
- Km ([12]; read-out: affinity constants (Km), approximate, over the Ima proteins): ~500 µM

Compound: O=[N+]([O-])c1ccc(O[C@@H]2O[C@H](CO)[C@@H](O)[C@H](O)[C@H]2O)cc1 [β-pNPG, 4-Nitrophenyl β-D-glucopyranoside]
- Specific activities (Ima2p [4]): 0 µmol/min/mg
- Specific activities (Ima5p [5]): 0 µmol/min/mg
- Specific activities (Ima1p [7]): 0 µmol/min/mg
- Specific activities (Ima3p [10]): 0 µmol/min/mg
- activity on the substrate [12]: no release of pNP

Compound: maltoheptaose
- activity on the substrate [12]: No activity could be detected

Compound: maltopentaose
- activity on the substrate [12]: No activity could be detected

Source: article PMC3953731 (FEBS Open Bio, 2014)
